Assay results taken from US5945450A, “Naphthalene derivative” (Teijin Limited, priority 1994, dated 1999).

Columns and labels:
human IgE antibodies = assay: In vitro inhibition of the production of human IgE antibodies (lymphocytes + IL-4 + anti CD40Ab + IL-10, ELISA); format: cell-based; details: Lymphocyte, read-out: Inhibition of antibody production (%) IgE
Experimental: (§1) According to the method described in J. Immunol., 146:1836-1842, 1991 and J. Immunol., 147:8-13, 1991, the concentrations of IgE and IgG antibodies were measured by the procedures described below.
(§2) Peripheral venous blood was sampled from the healthy person, and submitted to density-gradient centrifugation to isolate lymphocytes. The lymphocytes thus obtained were washed and suspended in a culture medium (RPMI-1640 (provided by Gibco)+10% heat-inactivated FCS (Whittaker)+100 µg/ml streptomycin+100 U/ml penicillin+2mM L-glutamine). The cell suspensions were cultured for 1 week in the presence/absence of the compounds of this invention at the concentrations as described in Tables 3-1 to 3-2 together with human interleukin 4 (IL-4, Genzyme)([…]), anti CD40 antibodies (anti CD40Ab, Biosource, clone B-B20)([…]) and human interleukin 10 (IL-10, Genzyme)([…]). The culture medium was supplied freshly to the cell suspension, and the mixture was further cultured for another week. The supernatant was sampled and the concentrations of IgE and IgG antibodies therein were measured by sandwich ELISA.
(§3) The ELISA was based, for the assay of IgE antibodies, on the use of rabbit anti-human IgE() antibodies (ICN) as the primary antibody and biotin-linked anti-human IgE monoclonal antibodies (G7-26, PharMingen) as the secondary antibody. For the assay of IgG antibodies, anti-human IgG monoclonal antibodies (G18-145, PharMingen) and biotin-linked donkey anti-human IgG antibodies (H+L)(Jackson) were used for the primary and secondary antibodies, respectively. For the assay of both IgE and IgG antibodies, Avidin-Biotin-Horse Radish Peroxidase (ABC kit, Vector Lab) and TMB (3,3',5,5'-tetramethylbenzidine) microwell peroxidase substrate system (Kirkegaard & Perry Laboratories Inc.) were used as the enzyme and the substrate, respectively. The assays were made by the use of conventionally known ELISA.
(§4) The inhibitory effect (%) of a given compound of this invention on the production of the antibody was calculated with respect to the concentration of the same antibody when the compound was not coexistent (refer to Uejima et al., American Academy of Allergy and Immunology, Proceedings of 1995 Annual Meeting, Program No. 818).

human IgG antibodies = assay: In vitro inhibition of human IgG antibody production (lymphocytes + IL-4 + anti CD40Ab + IL-10, ELISA); format: cell-based; details: Lymphocyte
Experimental: as §1, §2, §3, §4

TF (tissue factor) = assay: Inhibitory effects on the TF production in LPS-stimulated human peripheral blood monocytes; format: cell-based; details: Monocyte, LPS 1 μg/ml, 16 hours
Experimental: Peripheral venous blood was sampled from the healthy person, and submitted to density-gradient centrifugation so that monocytes might be isolated. The monocytes thus obtained were washed with minimum essential medium (MEM, Gibco) and suspended in a culture medium (RPMI-1640(Gibco)+25 mM HEPES buffer+100 μg/ml streptomycin+100 U/ml penicillin G+2 mM L-glutamine) to give a suspension with a density of 1×10^6 cells/ml. A 0.15 ml of the cell suspension was placed onto each of the wells of a 96-well microplate, to which the compound of this invention as described in Tables 4-1 to 4-2 was added (0.05 ml of the culture medium), and the assembly was placed for 1 hour in a CO2 incubator for cultivation. Then, LPS (lipopolysaccarides, E. coli 0111B4, Difco) 1 μg/ml was added thereto, and the assembly was further cultured for 16 hours. After the supernatant being removed, the residue was washed with physiological saline, 0.1 ml of 16 mM OG (n-octyl-β-D-glucopyranoside) was added thereto, and the assembly was stirred to make TF soluble. A 0.2 ml of physiological saline was added to each residue (final dilution was […]) and this preparation was used for determination of the coagulation stimulating activity (TF-like activity). The test compound had been dissolved in DMSO to give a 0.1 M solution which was diluted with the culture medium prior to use. The final concentration of DMSO was 0.01% or less.
To each well of the microplate, 50 μl of human plasma and 50 μl of the test sample prepared as above for determination of the coagulation stimulating activity, or 50 μl of standard thromboplastin (human thromboplastin, Thromborel S, Behringwerke) were added. The microplate was incubated at 37° C. for 5 minutes, to which was added 25 mM CaCl2 (50 μl/well) containing phosphorous lipids (Platelin, Organon Teknica) at a concentration of […] to initiate coagulation. Coagulation was determined on the basis of absorption at 540 nm, and the measurement lasted 7 to 20 minutes. The data were analyzed with a data analyzing software SOFTMax (Molecular Devices) and the maximum rate time was taken as the coagulation time. The logarithmic values of the coagulation times and standard thromboplastin concentrations are plotted, and a regression parabola was drawn among the dots to give a test curve. From the curve, the inhibitory effect (%) of a given test compound on TF production was calculated. (Refer to J. Imnmunol. Methods, 133:21-29, 1990, and Proc. Natl. Acad. Sci. USA, 89:10370-10374, 1992).

IgE = assay: In vivo inhibition of IgE production in TNP-KLH immunized mice; set-up: species or system BDF1 mice; details: 100 mg/kg/day subcutaneously, twice a day for 10 days, N=10
Experimental: TNP-KLH (trinitrophenyl-keyhole-lymphet-hemocyanin) was prepared by the method as described in J. Immunol., 97:421-430, 1966 from KLH and trinitrobenzene sulfonic acid. A […] of TNP-KLH suspended in 0.2 ml of saline and 1 mg of aluminum hydroxide gel were injected into the peritoneal cavity of BDF1 mice (8 weeks old) for immunization. From the day of immunization onward, the compound of this invention listed in Table 5 was given subcutaneously to the same animal twice a day for 10 days (100 mg/kg/day, dissolved in 0.5% Tween 80 in saline, and N=10). To the control group, 0.5% Tween 80 in saline was given at the same time schedule (N=10). Ten days after immunization, blood was extracted from the heart, and the concentrations of IgE, IgG1 and IgM antibodies were determined by ELISA (Immunol. Lett., 23:251-256, 1990, and Eur. J. Immunol., 20:2499-2503, 1990). Inhibition (%) of the antibody production with respect to the control was calculated.

O=C(Cc1ccc(Oc2ccc3ccccc3c2)cc1)Nc1ccccc1C(=O)O [Compound No. 1126, 2-(4-(2-naphtyloxy)phenylacetamide)benzoic acid]
inhibition at 1 µM (human IgE antibodies): 63.9% | inhibition at 3 µM (human IgE antibodies): 93.5% | inhibition at 10 µM (human IgE antibodies): 97.9% | inhibition at 1 µM (human IgG antibodies): -5% | inhibition at 3 µM (human IgG antibodies): 35.4% | inhibition at 10 µM (human IgG antibodies): 84% | inhibition at 3 µM (TF (tissue factor)): 26.5% | Inhibition of antibody production (%) IgE (IgE): 78.9%

O=C(Nc1ccccc1C(=O)O)c1ccc(Oc2ccc3ccccc3c2)cc1 [Compound No. 1104, 2-(4-(2-naphtyloxy)benzamide)benzoic Acid]
inhibition at 1 µM (human IgE antibodies): 35.9% | inhibition at 3 µM (human IgE antibodies): 85.6% | inhibition at 10 µM (human IgE antibodies): 98.2% | inhibition at 1 µM (human IgG antibodies): -4.7% | inhibition at 3 µM (human IgG antibodies): -6.2% | inhibition at 10 µM (human IgG antibodies): 20.5% | inhibition at 1 µM (TF (tissue factor); 1 μM): 45.3% | inhibition at 3 µM (TF (tissue factor)): 90.4% | inhibition at 10 µM (TF (tissue factor); 10 μM): 100% | Inhibition of antibody production (%) IgE (IgE): 60.4%
